The text below walks through data of patent US9200017B2, “Multimodal imaging of fibrin” (The General Hospital Corporation, priority 2009, dated 2015).

This experiment deals with T1, Thrombus (Rattus norvegicus, UniProt P02680+P06399+P14480).
T1 construct: thrombin cleaves fibrinopeptides on fibrinogen resulting in an end-to-end polymerization to give the polymer fibrin; A day old autologous blood clot was injected into the right internal carotid artery; from tissue; host or cells: autologous blood clot in the right internal carotid artery of Wistar rats
T1 sequence (P06399 37-550 isoform P06399-2 limits assumed): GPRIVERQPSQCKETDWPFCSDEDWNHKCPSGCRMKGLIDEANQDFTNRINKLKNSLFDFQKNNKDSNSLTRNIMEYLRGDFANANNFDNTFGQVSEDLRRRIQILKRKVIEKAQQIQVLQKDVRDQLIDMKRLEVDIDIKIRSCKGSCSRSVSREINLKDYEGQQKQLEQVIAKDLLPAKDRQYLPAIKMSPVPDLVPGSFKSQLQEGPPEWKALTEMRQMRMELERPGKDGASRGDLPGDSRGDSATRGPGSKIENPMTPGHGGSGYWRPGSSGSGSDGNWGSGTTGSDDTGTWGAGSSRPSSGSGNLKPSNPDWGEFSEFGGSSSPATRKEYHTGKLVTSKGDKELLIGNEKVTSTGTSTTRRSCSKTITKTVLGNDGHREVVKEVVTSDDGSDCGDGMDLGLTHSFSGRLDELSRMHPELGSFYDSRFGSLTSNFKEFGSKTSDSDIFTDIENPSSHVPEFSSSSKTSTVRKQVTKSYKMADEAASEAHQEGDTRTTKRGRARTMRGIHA
T1 sequence (P14480 33-479 limits assumed): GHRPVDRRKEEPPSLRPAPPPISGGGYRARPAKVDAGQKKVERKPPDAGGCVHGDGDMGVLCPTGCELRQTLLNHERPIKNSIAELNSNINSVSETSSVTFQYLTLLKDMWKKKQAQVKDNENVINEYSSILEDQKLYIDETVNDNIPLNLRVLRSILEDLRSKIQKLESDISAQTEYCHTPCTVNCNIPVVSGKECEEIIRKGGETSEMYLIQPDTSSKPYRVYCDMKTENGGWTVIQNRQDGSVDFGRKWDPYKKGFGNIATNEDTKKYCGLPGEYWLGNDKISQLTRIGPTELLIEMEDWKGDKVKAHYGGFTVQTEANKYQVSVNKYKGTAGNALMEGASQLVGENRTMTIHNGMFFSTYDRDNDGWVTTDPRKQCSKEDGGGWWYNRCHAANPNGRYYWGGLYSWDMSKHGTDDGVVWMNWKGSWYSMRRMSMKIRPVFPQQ
T1 sequence (P02680 26-437 isoform P02680-2 limits assumed): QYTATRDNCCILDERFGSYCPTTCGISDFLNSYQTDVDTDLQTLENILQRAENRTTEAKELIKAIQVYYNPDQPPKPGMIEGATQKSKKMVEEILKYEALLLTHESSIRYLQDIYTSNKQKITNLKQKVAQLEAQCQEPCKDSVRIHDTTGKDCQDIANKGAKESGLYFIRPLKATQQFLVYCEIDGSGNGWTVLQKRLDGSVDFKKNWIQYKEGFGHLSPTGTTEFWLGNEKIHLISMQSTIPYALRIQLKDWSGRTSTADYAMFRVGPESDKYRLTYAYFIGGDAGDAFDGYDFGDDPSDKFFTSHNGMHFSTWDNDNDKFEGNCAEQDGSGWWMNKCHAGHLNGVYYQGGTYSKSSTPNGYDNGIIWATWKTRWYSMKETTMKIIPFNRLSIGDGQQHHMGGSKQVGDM
Kind of experiment: MR-PET imaging of occlusive thrombus in right internal carotid artery of rats. In kind it is in vivo. Particulars: for PET time-activity curve in thrombus: over 90 min, contralateral vessel signal decays with time; for Thrombus visibility on black-blood T1-weighted MR post injection: six animals imaged. The protocol:
All animal studies were approved by the Subcommittee on Research Animal Care at Massachusetts General Hospital. The occlusive thrombus model was described previously (Zhang R L, Chopp M, Zhang Z G, Jiang Q, and Ewing J R., Brain Res. 1997 766(1-2):83-92). Briefly, male Wistar rats (350-400 g, n=8; Charles River Laboratories, Wilmington, Mass.) were anaesthetized with isoflurane (1-2% in 70% N2O and 30% O2) and body temperature was kept at 37.5° C. A day old autologous blood clot was injected into the right internal carotid artery (ICA) at the level of the middle cerebral artery (MCA). The femoral vein was cannulated for intravenous delivery of the contrast agent. Simultaneous PET and MR were acquired on a clinical 3T MRI-BrainPET scanner using a home-built receive surface coil and a CP transmit coil. After baseline MR scans were acquired, the dual MR-PET probe was injected at a dose of 11.5 μmol/kg (46 μmol Gd/kg, total activity=19.6±5.9 MBq). The animals were sacrificed 2 h post-injection. In total, six animals underwent imaging while in two additional animals only biodistribution data was collected.
The list-mode emission data from PET were rebinned in the sinogram space for fast reconstruction. The uncorrected PET volume was first reconstructed and binary segmented based on an empirically determined threshold in soft tissue and air. A uniform linear attenuation coefficient (0.096 cm^−1, corresponding to water at 511 keV) was assigned to all soft tissue voxels and the resulting attenuation map (combined with the coil attenuation map) was forward projected to derive the attenuation correction factors in sinogram space. A model-based approach was used to derive the scatter sinogram. The normalization was calculated from a 64 hr scan of a plane-source rotated in the FOV. The images were reconstructed with the ordinary Poisson ordered subsets expectation maximization (OP-OSEM) algorithm using 16 subsets and 6 iterations. The reconstructed volume consists of 153 slices with 256×256 pixels (1.25×1.25×1.25 mm^3). The spatial resolution at the center of the field of view is approximately 2.5 mm.
The emission data were recorded in list-mode format for approximately 90 min (9×10 min frames) after MR-PET probe administration. The data acquired in each individual frame were processed and images were reconstructed after acquisition for immediate analysis. Images were also reconstructed from the data acquired 30-90 minutes post injection. Additionally, thirty 3-minute frames were generated and the tracer uptake in structures of interest as a function of time was analyzed.
The MR imaging sequence included MP-RAGE and 3D T1-weighted gradient echo scans with and without inflow saturation. The latter were used for time of flight (TOF) angiography. The field of view scanned for the 3D sequences was 85×85 mm^2, with repetition time (TR), echo time (TE), and flip angle of 32 ms, 5.78 ms and 18°, respectively. […] For the MP-RAGE, the parameters used were inversion time TI=900 ms, TR/TE=2300/4.4, NEX=1, FOV=49×49 mm^2, matrix=192×192, slice thickness=0.26 mm for resolution=0.26 mm^3.
MR images were analyzed using OsiriX (www.osirix-viewer.com) by drawing regions of interest (ROI) in the thrombus, contralateral artery and adjacent tissue and quantifying signal intensity (SI). Noise was quantified as the standard deviation (SD) of the signal measured in the air outside the animal. Contrast to noise ratios (CNR) were calculated for the difference between tissue A and tissue B using the following equation (1). CNR(tissue A/tissue B)=[SI(tissue A)−SI(tissue B)]/SD(air) (1)
Signal intensity ratios (SIR) between the thrombus (ipsilateral) and contralateral vessel were calculated using equation (2) for images pre- and 10 min post-probe administration. SIR=[SI(ipsilateral)/SI(contralateral)]post/[SI(ipsilateral)/SI(contralateral)]pre (2) […]

On to Gd3-EP-2104R-Cu [Compound 21], for which the “PET time-activity curve in thrombus” value is “rapid and static uptake in the thrombus”; the “Thrombus visibility on black-blood T1-weighted MR post injection” value is “now bright indicating the presence of thrombus”. The “CNRthrombus:brain post probe” value (black-blood MR, 11.5 μmol/kg i.v., pre-injection −2.0±2.2, p<0.005) turned out to be 13.0±2.0. For the same substance, the “PET SIRipsi:contra” value (hyperintense lesion vs identical contralateral volume of interest, p<0.01) worked out at 1.85±0.48. Under “listed as Gd3-EP-2104R-^64Cu”, the “PET time-activity curve in thrombus” value is given as “activity remains approximately constant over 90 min” and the “Thrombus visibility on black-blood T1-weighted MR post injection” value is on record as “clearly visible”. The “MR SIRpost/SIRpre” value (thrombus vs contralateral vessel, pre and 10 min post probe, p<0.01) was 1.71±0.35.
